Measurements: patent publication US12453726B2, “Methods of using factor B inhibitors” (priority 2020, dated 2025)
Counter-ions that a name gives are not always drawn.

What was measured:
[1] = system: PNH patients with active hemolysis despite treatment with eculizumab; assay: Phase 2 study CLNP023X2201 interim analysis: LNP023 hydrochloride add-on to eculizumab in PNH patients with active hemolysis; format: in vivo, human
Protocol: (§1) The dose of 200 mg LNP023 hydrochloride b.i.d. as continuous treatment has been selected for this Phase 3 study primarily based on the available efficacy and safety data obtained at the time of interim analyses from the two ongoing Phase 2 PNH studies (ClinicalTrials.gov Identifier: NCT03439839 and NCT03896152) and is supported by PKPD modeling results.
In the CLNP023X2201 study in patients with active hemolysis despite treatment with eculizumab, LNP023 hydrochloride at a dose of 200 mg b.i.d. was administered to 10 PNH participants (cohort 1) and at a dose of 50 mg b.i.d. to 6 PNH participants (cohort 2). An interim analysis (IA) was conducted after 10 participants (cohort 1) completed at least 12 weeks of treatment with LNP023 hydrochloride 200 mg b.i.d. add-on treatment to eculizumab.
(§2) The hematological response participants achieved with LNP023 hydrochloride 200 mg b.i.d. add-on therapy was maintained with LNP023 hydrochloride monotherapy during the extension period (at the time of the IA) when eculizumab treatment was discontinued in 5/10 participants who continued with LNP023 hydrochloride monotherapy. Following the IA, two additional participants discontinued eculizumab treatment.

[2] = system: anti-C5 antibody treatment naive PNH patients; assay: Phase 2 study interim analysis: LNP023 hydrochloride monotherapy in anti-C5 antibody treatment naive PNH patients; format: in vivo, human
Protocol: as §1
In the Phase 2 study (NCT03439839) in anti-C5 antibody treatment naive patients, participants received LNP023 hydrochloride monotherapy with sequential dose increments at Week 4 from LNP023 hydrochloride 25 mg b.i.d. to 100 mg b.i.d (sequence 1) or LNP023 hydrochloride 50 mg b.i.d. to 200 mg b.i.d. (sequence 2). An IA was conducted after 8 patients were randomized and 7 patients completed Week 8 visit assessments.
as §2

alternative pathway = assay: Exposure-response model from First In Human study data (Wieslab assay); settings: dose of about 200 mg b.i.d., in >70% of subjects; model built on healthy volunteer data
Protocol: The exposure-response model developed with data from the First In Human (FIH) study with LNP023 hydrochloride in healthy volunteers predicts that a dose of about 200 mg b.i.d. would be needed to achieve >90% inhibition of the alternative pathway (Wieslab assay) in >70% of subjects. Given the risk of hemolysis and breakthroughs in cases of insufficient inhibition of complement activity, full inhibition is desired and modelling results provide additional support for the choice of the dose of 200 mg b.i.d. for PNH.

[3] = system: patients with C3 glomerulopathy; assay: Study CLNP023X2202, safety and tolerability; format: in vivo, human; settings: 200 mg b.i.d.
[4] = system: patients with IgA nephropathy; assay: Study CLNP023X2203, safety and tolerability; format: in vivo, human; settings: 200 mg b.i.d.
[5] = 200 mg b.i.d. added to eculizumab
[6] = 200 mg b.i.d. as add-on to eculizumab, cohort 1, interim analysis
[7] = 200 mg b.i.d., PNH participants

CCO[C@H]1CCN(Cc2c(OC)cc(C)c3[nH]ccc23)[C@H](c2ccc(C(=O)O)cc2)C1 [LNP023 hydrochloride, 4-((2S,4S)-(4-ethoxy-1-((5-methoxy-7-methyl-1H-indol-4-yl)methyl)piperidin-2-yl))benzoic acid hydrochloride]
C3 deposition [1, 5]: fully reversed
Fragment Bb (target engagement) [1, 5]: profound and sustained reduction
inhibition of the complement alternative pathway [1, 5]: sustained inhibition
survival of PNH red blood cells [1, 5]: prolonged
bilirubin (control of EVH) [1, 6]: reduction
haptoglobin (control of EVH) [1, 6]: increase
hemoglobin in the absence of red blood cell transfusions [1, 6]: normalization of hemoglobin in the majority of patients
reticulocytes (control of EVH) [1, 6]: reduction
control of IVH demonstrated by LDH ([1]; 200 mg b.i.d. as add-on to eculizumab, cohort 1, interim analysis after at least 12 weeks): LDH reduction
hematological response during the extension period after eculizumab was discontinued ([1]; 200 mg b.i.d. monotherapy, 5/10 participants who discontinued eculizumab): maintained
safety and tolerability [1, 7]: safe and well tolerated
response at 50 mg b.i.d. ([1]; cohort 2, 50 mg b.i.d., preliminary, three participants required up-titration to 200 mg b.i.d.): suboptimal response
safety and tolerability [2, 7]: safe and well tolerated
bilirubin (extravascular hemolysis) ([2]; monotherapy): decrease
haptoglobin (extravascular hemolysis) ([2]; monotherapy): increase
reticulocytes (extravascular hemolysis) ([2]; monotherapy): decrease
transfusion-free hemoglobin ([2]; monotherapy, dose levels ≥25 mg b.i.d.): early transfusion-free hemoglobin increase in the majority of participants
LDH reduction from baseline ([2]; monotherapy, dose levels ≥25 mg b.i.d., all participants): more than 60%
predicted inhibition of the alternative pathway (Wieslab assay) (alternative pathway): > 90%
safety and tolerability [3]: safe and well tolerated
safety and tolerability [4]: safe and well tolerated
